Legend:
human capsaicin receptor [1] = biological target: T1, human capsaicin receptor (Homo sapiens, UniProt Q8NER1); assay: Calcium mobilization assay, determination of antagonist activity; type: cell-based; details: cells expressing human capsaicin receptor, capsaicin at EC50, FLUO-3 fluorescence; read-out: IC50 (antag.)
T1 construct: expressed in transfected cells
Experimental: (§1) A cDNA encoding full length human capsaicin receptor (SEQ ID NO: 1, 2 or 3 of U.S. Pat. No. 6,482,611) was subcloned in the plasmid pBK-CMV (Stratagene, La Jolla, Calif.) for recombinant expression in mammalian cells.
(§2) Human embryonic kidney (HEK293) cells were transfected with the pBK-CMV expression construct encoding the full length human capsaicin receptor using standard methods. The transfected cells were selected for two weeks in media containing G418 (400 μg/ml) to obtain a pool of stably transfected cells. Independent clones were isolated from this pool by limiting dilution to obtain clonal stable cell lines for use in subsequent experiments.
(§3) Cells transfected with expression plasmids (as described in Example 4) and thereby expressing human capsaicin receptor are seeded and grown to 70-90% confluency in FALCON black-walled, clear-bottomed 96-well plates (#3904, BECTON-DICKINSON, Franklin Lakes, N.J.). The culture medium is emptied from the 96 well plates and FLUO-3 AM calcium sensitive dye (Molecular Probes, Eugene, Oreg.) is added to each well (dye solution: 1 mg FLUO-3 AM, 440 μL DMSO and 440 μ20% pluronic acid in DMSO, diluted 1:250 in Krebs-Ringer HEPES (KRH) buffer (25 mM HEPES, 5 mM KCl, 0.96 mM NaH2PO4, 1 mM MgSO4, 2 mM CaCl2, 5 mM glucose, 1 mM probenecid, pH 7.4), 50 μl diluted solution per well). Plates are covered with aluminum foil and incubated at 37° C. for 1-2 hours in an environment containing 5% CO2. After the incubation, the dye is emptied from the plates, and the cells are washed once with KRH buffer, and resuspended in KRH buffer.
To measure the ability of a test compound to agonize or antagonize a calcium mobilization response in cells expressing capsaicin receptors to capsaicin or other vanilloid agonist, the EC50 of the agonist capsaicin is first determined. An additional 20 μl of KRH buffer and 1 μl DMSO is added to each well of cells, prepared as described above. 100 μl capsaicin in KRH buffer is automatically transferred by the FLIPR instrument to each well. Capsaicin-induced calcium mobilization is monitored using either FLUOROSKAN ASCENT (Labsystems; Franklin, Mass.) or FLIPR (fluorometric imaging plate reader system; Molecular Devices, Sunnyvale, Calif.) instruments. Data obtained between 30 and 60 seconds after agonist application are used to generate an 8-point concentration response curve, with final capsaicin concentrations of 1 nM to 3 μM. KALEIDAGRAPH software (Synergy Software, Reading, Pa.) is used to fit the data to the equation: […]
to determine the 50% excitatory concentration (EC50) for the response. In this equation, y is the maximum fluorescence signal, x is the concentration of the agonist or antagonist (in this case, capsaicin), a is the Emax, b corresponds to the EC50 value and c is the Hill coefficient.
Test compounds are dissolved in DMSO, diluted in 20 μl KRH buffer so that the final concentration of test compounds in the assay well is between 1 μM and 5 μM, and added to cells prepared as described above. The 96 well plates containing prepared cells and test compounds are incubated in the dark, at room temperature for 0.5 to 6 hours. It is important that the incubation not continue beyond 6 hours. Just prior to determining the fluorescence response, 100 μl capsaicin in KRH buffer at twice the EC50 concentration determined as described above is automatically added by the FLIPR instrument to each well of the 96 well plate for a final sample volume of 200 μl and a final capsaicin concentration equal to the EC50. The final concentration of test compounds in the assay wells is between 1 μM and 5 μM. […] The concentration of antagonist required to provide a 50% decrease, relative to the response observed in the presence of capsaicin and without antagonist, is the IC50 for the antagonist, and is preferably below 1 micromolar, 100 nanomolar, 10 nanomolar or 1 nanomolar.

human capsaicin receptor [2] = biological target: T1, human capsaicin receptor; assay: Calcium mobilization assay, determination of agonist activity; type: cell-based; details: cells expressing human capsaicin receptor, no capsaicin added, FLUO-3 fluorescence
Experimental: as §1, §2
as §3, with “After the incubation, the dye is emptied from the plates, and the cells are washed once with KRH buffer, and resuspended in KRH buffer.” left out
The ability of a test compound to act as an agonist of the capsaicin receptor is determined by measuring the fluorescence response of cells expressing capsaicin receptors elicited by the compound as function of compound concentration. […] The extent of efficacy of each test compound is also determined by calculating the response elicited by a concentration of test compound (typically 1 μM) relative to the response elicited by 100 nM capsaicin. This value, called Percent of Signal (POS), is calculated by the following equation: […]

VR = VR (Homo sapiens, UniProt Q8NER1); details: typically; no more than moderate affinity; cited from earlier work
VR, sequence (Q8NER1 whole entry): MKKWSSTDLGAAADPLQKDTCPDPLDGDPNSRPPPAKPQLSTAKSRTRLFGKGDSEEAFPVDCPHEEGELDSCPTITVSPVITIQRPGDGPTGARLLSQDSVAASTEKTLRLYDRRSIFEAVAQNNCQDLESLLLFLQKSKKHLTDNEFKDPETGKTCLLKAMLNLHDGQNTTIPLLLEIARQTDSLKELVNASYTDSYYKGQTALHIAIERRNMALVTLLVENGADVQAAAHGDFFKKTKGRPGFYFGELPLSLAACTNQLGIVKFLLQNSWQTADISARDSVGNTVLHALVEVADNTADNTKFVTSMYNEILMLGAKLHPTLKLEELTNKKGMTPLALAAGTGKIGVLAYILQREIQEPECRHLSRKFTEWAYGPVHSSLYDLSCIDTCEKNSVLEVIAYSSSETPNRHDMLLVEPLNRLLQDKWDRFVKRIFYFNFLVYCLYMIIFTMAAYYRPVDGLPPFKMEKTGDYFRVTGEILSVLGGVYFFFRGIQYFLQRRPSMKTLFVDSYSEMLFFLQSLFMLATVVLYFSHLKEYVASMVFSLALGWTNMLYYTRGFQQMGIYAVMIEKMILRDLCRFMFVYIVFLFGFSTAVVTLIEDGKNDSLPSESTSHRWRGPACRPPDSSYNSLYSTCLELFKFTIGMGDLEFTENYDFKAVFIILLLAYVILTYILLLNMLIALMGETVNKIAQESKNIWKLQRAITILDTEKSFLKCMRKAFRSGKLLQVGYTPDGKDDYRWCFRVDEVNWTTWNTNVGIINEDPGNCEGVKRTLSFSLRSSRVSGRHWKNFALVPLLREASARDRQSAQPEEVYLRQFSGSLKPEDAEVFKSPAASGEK

T1 sequence (Q8NER1 whole entry): as above

| IC50 (human capsaicin receptor [1]) [µM] | EC50 (human capsaicin receptor [2]) [µM] | Compound | Ki (VR) [µM] |
| --- | --- | --- | --- |
| < 1 |  | Cc1cccnc1-c1ccc(-c2cc(-c3ccc(F)c(Cl)c3)nc(N3CCOCC3)n2)cn1 [Compound 6, 5′-[6-(3-chloro-4-fluorophenyl)-2-morpholin-4-ylpyrimidin-4-yl]-3-methyl-2,2′-bipyridine] |  |
|  | < 1 | CC1CCCN1c1nc(-c2ccc(F)cc2)cc(-c2ccc(N3CCC(C(N)=O)CC3)nc2)n1 (stereo not shown) [Compound 4, 1-{5-[6-(4-fluorophenyl)-2-(2-methylpyrrolidin-1-yl)pyrimidin-4-yl]pyridin-2-yl}piperidine-4-carboxamide] |  |
|  | < 1 | CC1CCCN1c1nc(-c2ccc(F)cc2)cc(-c2ccc(N3CCC(CO)CC3)nc2)n1 (stereo not shown) [Compound 7, (1-{5-[6-(4-fluorophenyl)-2-(2-methylpyrrolidin-1-yl)pyrimidin-4-yl]pyridin-2-yl}piperidin-4-yl)methanol] |  |
| < 1 |  | CC1CCCN1c1nc(-c2ccc(F)cc2)cc(-c2ccc(N3CCC(C(=O)O)CC3)nc2)n1 (stereo not shown) [Compound 3, 1-{5-[6-(4-fluorophenyl)-2-(2-methylpyrrolidin-1-yl)pyrimidin-4-yl]pyridin-2-yl}piperidine-4-carboxylicacid] |  |
|  |  | Cl.Cl.Cl.Cl.Cl.Cl.N.N.N.N.N.N.N.N.N.N.N.N.N.N.[O-2].[O-2].[Ru+3].[Ru+3].[Ru+4] [ruthenium red] | ≥ 140 |
| < 1 |  | Fc1ccc(-c2cc(-c3ccc(-c4ncccc4C(F)(F)F)cc3)nc(N3CCOCC3)n2)cc1Cl [Compound 9, 4-(4-(3-chloro-4-fluorophenyl)-6-{4-[3-(trifluoromethyl)pyridin-2-yl]phenyl}pyrimidin-2-yl)morpholine] |  |
| < 1 | < 1 | CC1CCCN1c1nc(-c2ccc(F)cc2)cc(-c2ccc(N3CCC(O)CC3)nc2)n1 (stereo not shown) [Compound 1, 1-{5-[6-(4-fluorophenyl)-2-(2-methylpyrrolidin-1-yl)pyrimidin-4-yl]pyridin-2-yl}piperidin-4-ol] |  |
| < 1 |  | Fc1ccc(-c2cc(-c3ccc(-c4ncccc4C(F)(F)F)nc3)nc(N3CCOCC3)n2)cc1Cl [Compound 5, 5′-[6-(3-chloro-4-fluorophenyl)-2-morpholin-4-ylpyrimidin-4-yl]-3-(trifluoromethyl)-2,2′-bipyridine] |  |
| < 1 |  | Nc1nc(-c2ccc(-c3ncccc3C(F)(F)F)cc2)cc(-c2ccc(F)c(Cl)c2)n1 [Compound 8, 4-(3-chloro-4-fluorophenyl)-6-{4-[3(trifluoromethyl)pyridin-2-yl]phenyl}pyrimidin-2-amine] |  |

— patent US20080132509A1, “Substituted Biaryl Analogues” (Neurogen Corporation, priority 2004, published 2008)
